Experimental data taken from patent US20120259126A1, “[…]” (UNIVERSITAT HEIDELBERG, priority 2009, published 2012).

Conditions: 24° C.

Structure (SMILES): C1CCOC1.C1CCOC1.C1CCOC1.C1CCOC1.CC(C)(C)c1cc2c(c(C(C)(C)C)c1)O[B-]1(Oc3c-2cc(C(C)(C)C)cc3C(C)(C)C)Oc2c(cc(C(C)(C)C)cc2C(C)(C)C)-c2cc(C(C)(C)C)cc(C(C)(C)C)c2O1.[Li+] [lithium tetrakis(tetrahydrofuran)bis(3,3′,5,5′-tetra-tert-butyl-2,2′-diphenolato)borate(III)]
- solubility in pentane (maximum concentrations): at least 21 g/L
